Source: patent publication US7786142B2, “Heterocyclic compounds as pSTAT3/IL-6 inhibitors” (Orchid Research Laboratories, Ltd., priority 2005, dated 2010)

Legend:
[1] = system: NCIH460 cells; experiment: Anti-cancer screen (MTT), NCIH460 cells; type: cell-based; settings: Homo sapiens, NCI-H460, NCIH460, 48 hours, concentrations tested 0.01-100 μM; for CC50: read-out: LC50 (the source's name)
Experimental: (§1) Experimental drugs are screened for anti-cancer activity in three cell lines for their GI50, TGI and LC50 values (using five concentrations for each compound). The cell lines are maintained in DMEM containing 10% fetal bovine serum. 96 well micro titer plates are inoculated with cells in 100 μL for 24 hours at 37° C., 5% CO2, 95% air and 100% relative humidity. 5000 HCT116 cells/well, 5000 NCIH460 cells/well and 5000 U251 cells/well are plated. A separate plate with these cell lines is also inoculated to determine cell viability before the addition of the compounds (T0), (See Table I).
(§2) Following 24-hours incubation, experimental drugs are added to the 96 well plates. Each plate contains one of the above cell lines and the following in triplicate: five different concentrations (0.01, 0.1, 1, 10 and 100 μM) of four different compounds, appropriate dilutions of a cytotoxic standard and control (untreated) wells. Compounds are dissolved in DMSO to make 20 mM stock solutions on the day of drug addition and frozen at −20° C. Serial dilutions of these 20 mM stock solutions are made in complete growth medium such that 100 μL of these drug solutions in medium, of final concentrations equaling 0.01, 0.1, 1, 10 and 100 μM can be added to the cells in triplicate. Standard drugs whose anti-cancer activity has been well documented and which are regularly used are Doxorubicin and SAHA, (See Table I).
(§3) For T0 measurement, 24 hours after seeding the cells, 10 μL of 3-(4,5-Dimethyl-2-thiazolyl)-2,5-diphenyl-2H-tetrazolium (MTT) solution per well is added and incubation carried out for 3 hours at 37° C., 5% CO2, 95% air and 100% relative humidity, protected from light. Cells incubated with compounds for 48 hours are treated similarly except with the addition of 20 μL MTT solution per well and a subsequent incubation under the same conditions. After 3 hours of MTT incubation, well contents are aspirated carefully followed by addition of 150 μL DMSO per well. Plates are agitated to ensure solution of the formazan crystals in DMSO and absorbance read at 570 nm, (See Table I).
(§4) Percent growth is calculated for each compound's concentration relative to the control and zero measurement wells (T0; viability right before compound addition). If a test well's O.D. value is greater than the T0 measurement for that cell line % Growth=(test−zero)/(control−zero)×100

[2] = system: NCIH460, HCT116, MDAMB-231/U 251; experiment: Anti-cancer screen, mean GI50 over the cell lines; type: cell-based
Experimental: as §1, §2, §3, §4

[3] = system: HCT116 cells; experiment: Anti-cancer screen (MTT), HCT116 cells; type: cell-based; settings: Homo sapiens, HCT-116, HCT116, 48 hours, concentrations tested 0.01-100 μM
Experimental: as §1, §2, §3, §4

[4] = system: MDAMB-231/U 251; experiment: Anti-cancer screen (MTT), MDAMB-231/U 251 cells; type: cell-based; settings: MDAMB-231/U 251, 48 hours, concentrations tested 0.01-100 μM; for CC50: read-out: LC50 (the source's name)
Experimental: as §1, §2, §3, §4

[5] = system: IL-6; experiment: IL-6 in culture supernatants of NCIH 460 cells (ELISA); type: cell-based, Human; settings: Homo sapiens, NCI-H460, NCIH 460, 5 hours
Experimental: Human Lung Cancer cell line (NCIH 460) is used for IL-6 measurement. 5000 cells/well were seeded in a 96 well plate and incubated in CO2 incubator at 37° C. for 24 hours. After 24 hours of incubation the medium from all wells were completed removed and added 100 μl of fresh DMEM containing 10% FCS. 100 μl of different concentrations of the drug were added and incubated for 5 hours in CO2 incubator at 37° C. After 5 hours of incubation the supernatants were collected and stored at −80° C. The concentration of IL-6 in the supernatant was measured using ELISA kit and the IC50 value of the compound was determined from the dose response curve, (See Table II).

Structure (SMILES)	GI50 [1] [µM]	IC (TGI) [1] [µM]	CC50 [1] [µM]	GI50 [2] [µM]	GI50 [3] [µM]	IC (TGI) [3] [µM]	LC50 (concentration for 50% net cell kill relative to T0) [3] [µM]	GI50 [4] [µM]	IC (TGI) [4] [µM]	CC50 [4] [µM]	inhibition at 10 µM [5] [%]	IC50 ([5]; read-out: IL-6 Inhibition IC50) [µM]	inhibition at 1 µM ([5]; 1 μM) [%]
OC(COc1cccc2[nH]c3ccccc3c12)CN1CCCC1 (stereo not drawn) [Example 6, 1-(9H-carbazol-4-yloxy)-3-pyrrolidin-1-ylpropan-2-ol]	10	42	75	10.5	> 100	> 100	> 100	> 100	> 100	> 100			
COc1cc(NCC(O)COc2cccc3[nH]c4ccccc4c23)cc(OC)c1OC (stereo not drawn) [Example 8]	15	45	75	8.6	5.8	22	90	5	50	> 100			
Cc1cc(C)nc(NCC(O)COc2cccc3[nH]c4ccccc4c23)n1 (stereo not drawn) [Example 15, 1-(9H-carbazol-4-yloxy)-3-[(4,6-dimethylpyrimidin-2-yl)amino]propan-2-ol]	> 100	> 100	> 100	8	> 100	> 100	> 100	8	> 100	> 100			
OC(CNc1nc2ccccc2[nH]1)COc1cccc2[nH]c3ccccc3c12 (stereo not drawn) [Example 19, 1-(1H-Benzimidazol-2-ylamino)-3-(9H-carbazol-4-yloxy)propan-2-ol]	7.5	35	70.5	28.7	27	52	79	51.5	67	85			
OC(CNCc1ccccc1)COc1cccc2[nH]c3ccccc3c12 (stereo not drawn) [Example 23, 1-(9H-carbazol-4-yloxy)-3-benzylaminopropan-2-ol]	0.79	35	70	6.6	18	47	77	1	10	65	29.3	24	
O=[N+]([O-])c1ccc(CN2CCN(CC(O)COc3cccc4[nH]c5ccccc5c34)CC2)o1 (stereo not drawn) [Example 26, 1-(9H-carbazol-4-yloxy)-3-{4-[(5-nitro-2-furyl)methyl]piperazin-1-yl}propan-2-ol]	2	22	70	20.7	30	48	68	30	85	> 100			
O=[N+]([O-])c1ccc(CN2CCN(CC(O)COc3cccc4[nH]c5ccccc5c34)CC2)s1 (stereo not drawn) [Example 27, 1-(9H-carbazol-4-yloxy)-3-{4-[(5-nitro-2-thienyl)methyl]piperazin-1-yl}propan-2-ol]	45	98	> 100	25.9	30	60	90	2.8	48	> 100			
COc1cc(CN2CCN(CC(O)COc3cccc4[nH]c5ccccc5c34)CC2)cc(OC)c1 (stereo not drawn) [Example 30, 1-(9H-carbazol-4-yloxy)-3-[4-(3,5-dimethoxybenzyl)piperazin-1-yl]propan-2-ol]	30	60	90	19.2	25	72	84	2.5	9	70			
OC(COc1cccc2[nH]c3ccccc3c12)CN1CCN(Cc2ccc(F)c(F)c2)CC1 (stereo not drawn) [Example 31, 1-(9H-carbazol-4-yloxy)-3-[4-(3,4-difluorobenzyl)piperazin-1-yl]propan-2-ol]	35	90	65	25.7	38	66	92	4	7	10			
O=C(c1ccc([N+](=O)[O-])o1)N1CCN(CC(O)COc2cccc3[nH]c4ccccc4c23)CC1 (stereo not drawn) [Example 35, 1-(9H-carbazol-4-yloxy)-3-{4-(5-nitro-2-furoyl)piperazin-1-yl}propan-2-ol]	0.8	7.5	60	3.27	6	42	85	3	> 100	> 100	80.4		45
Cc1cccc2sc(NC(=O)CN3CCN(CC(O)COc4cccc5[nH]c6ccccc6c45)CC3)nc12 (stereo not drawn) [Example 59, 2-{4-[3-(9H-carbazol-4-yloxy)-2-hydroxypropyl]-piperazin-1-yl}-N-(4-methyl-1,3-benzothiazol-2-yl)acetamide]	9.5	> 100	> 100	28.2	> 100	> 100	> 100	47	> 100	> 100			
Cc1csc(NC(=O)CN2CCN(CC(O)COc3cccc4[nH]c5ccccc5c34)CC2)n1 (stereo not drawn) [Example 60, 2-{4-[3-(9H-carbazol-4-yloxy)-2-hydroxypropyl]-piperazin-1-yl}-N-(4-methyl-1,3-thiazol-2-yl)acetamide]	24	61	85	25	26	62	100	> 100	> 100	> 100			
O=C(Cc1ccc(F)cc1)N1CCC(NCC(O)COc2cccc3[nH]c4ccccc4c23)CC1 (stereo not drawn) [Example 66]	14	54	79	18.3	26	49	84	15	48	77			
N#Cc1ccc(C(=O)N2CCC(NCC(O)COc3cccc4[nH]c5ccccc5c34)CC2)cn1 (stereo not drawn) [Example 70, 1-(9H-carbazol-4-yloxy)-3-{[1-(6-cyanonicotine-3-carbonyl)piperidin-4-yl]amino}propan-2-ol]	23	50	78	10.5	5	23	67	3.5	8.9	57			
